# Measurements taken from patent US20240358692A1, “TREATMENT OF SCLERODERMA” (Aisa Pharma, Inc., priority 2023, published 2024).
# What was measured:
# [1] = tested on: participants with SSc-RP; experiment: Summary of data: dose response / overall response (Table S); assay type: in vivo, human; details: 20 mg dose group
# [2] = cited from earlier work
# [3] = tested on: participants with SSc-RP; experiment: Average daily Raynaud's Condition Score (RCS); assay type: in vivo, human; design: key to Average Daily RCS, Mean / Average Daily RCS, Median / Average Daily RCS Change from Baseline, Mean / Average Daily RCS Change from Baseline, Median: RCS rated on a 0-10 cm VAS scale; details: ITT Population - Part A; for Average Daily RCS, Mean / Average Daily RCS, Median: dosing period
# Excerpt: The RCS is based on how much difficulty participants had with Raynaud's today, how many attacks the participant had, and how long they lasted. In addition participants were and will be asked to consider how much pain, numbness, or other symptoms the Raynaud's caused in fingers (including painful sores), and how much the Raynaud's along affected the use of hand today (VAS 0-10 cm scale).
# The absolute change in average daily RCS from baseline to the end of each dosing period was and will be a secondary outcome variable. The sponsor-developed participant-informed diary has been and will be used to record data. The average daily RCS is defined as the total RCS divided by the number of days with available diary data of each dosing period. Total RCS during screening period divided by the number of days with available data will be used as baseline for the analysis of all periods. If there are multiple daily RCS scores, the latest daily RCS will be used. The variable will be calculated similar to frequency data as before.
# [4] = Excluding Outliers, dose cilnidipine 10 mg, tadalafil 5 mg, alone or combined as labelled
# [5] = Excluding Outliers, dose cilnidipine 20 mg, tadalafil 5 mg, alone or combined as labelled
# [6] = Excluding Outliers, pooled arms Cilnidipine 10 mg and Cilnidipine 10 mg + Tadalafil 5 mg
# [7] = Excluding Outliers, pooled arms Cilnidipine 20 mg and Cilnidipine 20 mg + Tadalafil 5 mg
# [8] = Excluding Outliers, pooled cilnidipine 10 mg and 20 mg arms (combination: + tadalafil 5 mg)
# [9] = dose cilnidipine 10 mg, tadalafil 5 mg, alone or combined as labelled
# [10] = dose cilnidipine 20 mg, tadalafil 5 mg, alone or combined as labelled
# [11] = pooled arms Cilnidipine 10 mg and Cilnidipine 10 mg + Tadalafil 5 mg
# [12] = pooled arms Cilnidipine 20 mg and Cilnidipine 20 mg + Tadalafil 5 mg
# [13] = pooled cilnidipine 10 mg and 20 mg arms (combination: + tadalafil 5 mg)
structure (smiles),measurement,setting,value
COCCOC(=O)C1=C(C)NC(C)=C(C(=O)OC/C=C/c2ccccc2)C1c1cccc([N+](=O)[O-])c1 (stereo not drawn) [Cilnidipine],Efficacy seen: overall response,[1],shows best overall
same,CL/F,"[2]; 10 mg Cilnidipine, Healthy Volunteers, single oral dose, mean",304.7 L/h
same,time to achieve maximal plasma concentrations (Tmax),[2]; oral dosing,≤ 2 h
same,"Average Daily RCS Change from Baseline, Mean",[3]; [4],−0.98
same,"Average Daily RCS Change from Baseline, Median",[3]; [4],−0.98
same,"Average Daily RCS Percent Change from Baseline, Mean",[3]; [4],−35.74%
same,"Average Daily RCS Percent Change from Baseline, Median",[3]; [4],−35.74%
same,"Average Daily RCS Change from Baseline, Mean",[3]; [5],−0.45
same,"Average Daily RCS Change from Baseline, Median",[3]; [5],−0.45
same,"Average Daily RCS Percent Change from Baseline, Mean",[3]; [5],−17.16%
same,"Average Daily RCS Percent Change from Baseline, Median",[3]; [5],−17.16%
same,"Average Daily RCS, Mean",[3]; [4],1.76
same,"Average Daily RCS, Median",[3]; [4],1.76
same,"Average Daily RCS, Mean",[3]; [5],2.90
same,"Average Daily RCS, Median",[3]; [5],2.90
same,"Average Daily RCS, Mean",[3]; [6],2.43
same,"Average Daily RCS, Median",[3]; [6],1.76
same,"Average Daily RCS, Mean",[3]; [7],3.60
same,"Average Daily RCS, Median",[3]; [7],3.82
same,"Average Daily RCS, Mean",[3]; [8],2.52
same,"Average Daily RCS, Median",[3]; [8],1.76
same,"Average Daily RCS Change from Baseline, Mean",[3]; [6],−1.64
same,"Average Daily RCS Change from Baseline, Median",[3]; [6],−1.51
same,"Average Daily RCS Percent Change from Baseline, Mean",[3]; [6],−41.77%
same,"Average Daily RCS Percent Change from Baseline, Median",[3]; [6],−36.47%
same,"Average Daily RCS Change from Baseline, Mean",[3]; [7],−1.08
same,"Average Daily RCS Change from Baseline, Median",[3]; [7],−0.59
same,"Average Daily RCS Percent Change from Baseline, Mean",[3]; [7],−18.93%
same,"Average Daily RCS Percent Change from Baseline, Median",[3]; [7],−20.71%
same,"Average Daily RCS Change from Baseline, Mean",[3]; [8],−0.63
same,"Average Daily RCS Change from Baseline, Median",[3]; [8],−0.98
same,"Average Daily RCS Percent Change from Baseline, Mean",[3]; [8],−23.35%
same,"Average Daily RCS Percent Change from Baseline, Median",[3]; [8],−35.74%
same,"Average Daily RCS Change from Baseline, Mean",[3]; [9],−0.98
same,"Average Daily RCS Change from Baseline, Median",[3]; [9],−0.98
same,"Average Daily RCS Percent Change from Baseline, Mean",[3]; [9],−35.74%
same,"Average Daily RCS Percent Change from Baseline, Median",[3]; [9],−35.74%
same,"Average Daily RCS Change from Baseline, Mean",[3]; [10],−0.45
same,"Average Daily RCS Change from Baseline, Median",[3]; [10],−0.45
same,"Average Daily RCS Percent Change from Baseline, Mean",[3]; [10],−17.16%
same,"Average Daily RCS Percent Change from Baseline, Median",[3]; [10],−17.16%
same,"Average Daily RCS, Mean",[3]; [9],1.76
same,"Average Daily RCS, Median",[3]; [9],1.76
same,"Average Daily RCS, Mean",[3]; [10],2.90
same,"Average Daily RCS, Median",[3]; [10],2.90
same,"Average Daily RCS, Mean",[3]; [11],2.43
same,"Average Daily RCS, Median",[3]; [11],1.76
same,"Average Daily RCS, Mean",[3]; [12],3.60
same,"Average Daily RCS, Median",[3]; [12],3.82
same,"Average Daily RCS, Mean",[3]; [13],2.52
same,"Average Daily RCS, Median",[3]; [13],1.76
same,"Average Daily RCS Change from Baseline, Mean",[3]; [11],−1.64
same,"Average Daily RCS Change from Baseline, Median",[3]; [11],−1.51
same,"Average Daily RCS Percent Change from Baseline, Mean",[3]; [11],−41.77%
same,"Average Daily RCS Percent Change from Baseline, Median",[3]; [11],−36.47%
same,"Average Daily RCS Change from Baseline, Mean",[3]; [12],−1.08
same,"Average Daily RCS Change from Baseline, Median",[3]; [12],−0.59
same,"Average Daily RCS Percent Change from Baseline, Mean",[3]; [12],−18.93%
same,"Average Daily RCS Percent Change from Baseline, Median",[3]; [12],−20.71%
same,"Average Daily RCS Change from Baseline, Mean",[3]; [13],−0.63
same,"Average Daily RCS Change from Baseline, Median",[3]; [13],−0.98
same,"Average Daily RCS Percent Change from Baseline, Mean",[3]; [13],−23.35%
same,"Average Daily RCS Percent Change from Baseline, Median",[3]; [13],−35.74%
